Values quoted from earlier work in patent US20100130442A1, “Lung Injury Treatment” (priority 2007, published 2010).

Experiments:
[1] = system: lung injury induced by intratracheal LPS in C57BL/6 mice; conditions: spontaneously ventilating C57BL/6 mice
[2] = system: mechanical ventilation induced lung injury; conditions: in vivo

SMILES: CCCCCCCCCCCCC/C=C/[C@@H](O)[C@@H](N)COP(=O)(O)O [Sphingosine-1-Phosphate]
- lung injury induced by intratracheal LPS [1]: attenuates
- mechanical ventilation induced lung injury [2]: blocked
